Earlier results as cited in US20040191345A1, “New formulations and use thereof” (priority 2003, published 2004).

Assays:
[1] = at room temperature
[2] = n-octanol / phosphate buffer at pH 7.32

In the case of Cc1ccc(O)c(C(CCN(C(C)C)C(C)C)c2ccccc2)c1 (stereo not drawn) [Tolterodine, N,N-diiso-propyl-3-(2-hydroxy-5-methylphenyl)-3-phenylpropanamine], the pKa value is given as 9.87, the solubility in water [1] is given as “about 11 mg/ml” and the “partition coefficient (Log P)” value [2] is given as 1.83.
